{"source": "patent US11433053B2", "about": "“LSD1 inhibitor and preparation method and application thereof” (CSPC ZHONGQI PHARMACEUTICAL TECHNOLOGY (SHIJIAZHUANG) CO., …, priority 2017, dated 2022)"}
{"target": "hERG potassium channel (Homo sapiens (Human), UniProt Q12809)", "sequence (Q12809 whole entry)": "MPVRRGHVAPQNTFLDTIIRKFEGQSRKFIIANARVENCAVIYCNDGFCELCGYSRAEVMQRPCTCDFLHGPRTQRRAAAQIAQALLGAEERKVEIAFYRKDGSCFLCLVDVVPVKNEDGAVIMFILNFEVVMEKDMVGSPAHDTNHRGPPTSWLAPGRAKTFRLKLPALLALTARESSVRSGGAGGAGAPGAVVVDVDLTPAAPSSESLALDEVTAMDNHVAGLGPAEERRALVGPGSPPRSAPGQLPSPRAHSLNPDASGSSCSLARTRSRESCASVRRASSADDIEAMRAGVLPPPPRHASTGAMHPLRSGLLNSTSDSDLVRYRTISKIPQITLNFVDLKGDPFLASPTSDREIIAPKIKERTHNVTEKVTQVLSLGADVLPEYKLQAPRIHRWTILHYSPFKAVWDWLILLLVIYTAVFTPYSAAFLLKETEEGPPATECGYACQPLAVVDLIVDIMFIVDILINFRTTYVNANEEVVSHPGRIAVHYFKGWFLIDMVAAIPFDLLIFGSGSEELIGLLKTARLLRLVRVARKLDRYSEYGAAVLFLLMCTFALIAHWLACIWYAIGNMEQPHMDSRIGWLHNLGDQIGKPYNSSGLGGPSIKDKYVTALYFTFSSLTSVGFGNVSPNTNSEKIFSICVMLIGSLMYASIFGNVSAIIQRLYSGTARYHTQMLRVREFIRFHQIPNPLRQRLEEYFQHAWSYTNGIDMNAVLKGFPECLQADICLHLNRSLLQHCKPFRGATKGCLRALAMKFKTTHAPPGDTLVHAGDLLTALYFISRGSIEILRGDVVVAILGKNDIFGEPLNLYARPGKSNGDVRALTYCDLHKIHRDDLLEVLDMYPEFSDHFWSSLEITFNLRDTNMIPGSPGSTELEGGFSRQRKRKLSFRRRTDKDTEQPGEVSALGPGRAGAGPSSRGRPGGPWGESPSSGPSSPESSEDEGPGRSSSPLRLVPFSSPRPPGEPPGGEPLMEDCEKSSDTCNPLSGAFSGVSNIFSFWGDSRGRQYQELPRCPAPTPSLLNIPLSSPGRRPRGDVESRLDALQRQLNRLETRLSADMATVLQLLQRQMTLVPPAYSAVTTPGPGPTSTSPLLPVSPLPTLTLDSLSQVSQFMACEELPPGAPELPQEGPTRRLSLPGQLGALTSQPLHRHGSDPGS", "test": "Assay on inhibiting hERG potassium channel (automatic patch clamp, CHO-hERG cells)", "assay_type": "cell-based", "conditions": "Qpatch, max test concentration 40 μM", "experimental": "Experimental purpose: Using automatic patch clamp method to detect the effect of the sample to be tested on hERG potassium channel.\n4.1.1 CHO-hERG cells were cultured in 175 cm^2 flasks. When the cell density was increased to 60-80%, the culture solution was removed and the resultant was washed with 7 mL PBS (Phosphate Buffered Saline phosphate buffer), then 3 mL of digestive juice was added to digest.\n4.1.2 After the digestion finished, 7 mL culture solution was added to neutralize. Then centrifuge, aspirate the supernatant, and then resuspend by adding 5 mL culture solution to ensure a cell density of 2-5×10^6/mL.\nSingle cell high impedance sealing and whole cell pattern formation were all done automatically by the Qpatch instrument. After the whole-cell recording mode was obtained, the cells were clamped at −80 mV. 50-Millisecond−50 mV preamplifier was applied prior to a 5 second+40 mV depolarization stimulus. Then the voltage was repolarized to −50 mV for 5 seconds and back to −80 mV. This voltage stimulation was applied every 15 seconds, and the extracellular fluid was recorded over 5 minutes after 2 minutes' record, and then the administration process was started. The compound concentration was started from the lowest test concentration, and each test concentration was given for 2.5 minutes. Test at least 3 cells (n≥3) for each concentration.\n4.4.1 Dilute 20 mM mother liquor of the compound with extracellular fluid 5 μL of 20 mM mother liquor of the compound was added to 2495 μL extracellular fluid, and the mixture was 500-fold diluted to 40 μM. Then 0.2% DMSO in extracellular fluid was 3-fold diluted sequentially to obtain the final concentration to be tested.\n4.4.2 The max test concentration was 40 μM, 6 concentrations were 40, 13.33, 4.44, 1.48, 0.49, and 0.16 μM respectively.\nExperimental data was analyzed by XLFit software.", "units": {"IC50": "µM"}}
{"smiles": "N[C@H]1CC[C@H](c2cc(C3(CN[C@@H]4C[C@H]4c4ccccc4)CC3)no2)CC1", "note": "[Example 241]", "IC50": "> 40"}
{"smiles": "N[C@H]1CC[C@H](c2nc(C3(CN[C@@H]4C[C@H]4c4ccccc4)CC3)no2)CC1", "note": "[Example 144]", "IC50": "> 40"}
{"smiles": "N[C@H]1CC[C@@H](c2nc(C3(CN[C@@H]4C[C@H]4c4ccccc4)CC3)no2)CC1", "note": "[Example 145]", "IC50": "> 40"}
